Target: T1, Group 3 secretory phospholipase A2 (Homo sapiens, UniProt Q9NZ20)
T1 sequence (Q9NZ20 whole entry): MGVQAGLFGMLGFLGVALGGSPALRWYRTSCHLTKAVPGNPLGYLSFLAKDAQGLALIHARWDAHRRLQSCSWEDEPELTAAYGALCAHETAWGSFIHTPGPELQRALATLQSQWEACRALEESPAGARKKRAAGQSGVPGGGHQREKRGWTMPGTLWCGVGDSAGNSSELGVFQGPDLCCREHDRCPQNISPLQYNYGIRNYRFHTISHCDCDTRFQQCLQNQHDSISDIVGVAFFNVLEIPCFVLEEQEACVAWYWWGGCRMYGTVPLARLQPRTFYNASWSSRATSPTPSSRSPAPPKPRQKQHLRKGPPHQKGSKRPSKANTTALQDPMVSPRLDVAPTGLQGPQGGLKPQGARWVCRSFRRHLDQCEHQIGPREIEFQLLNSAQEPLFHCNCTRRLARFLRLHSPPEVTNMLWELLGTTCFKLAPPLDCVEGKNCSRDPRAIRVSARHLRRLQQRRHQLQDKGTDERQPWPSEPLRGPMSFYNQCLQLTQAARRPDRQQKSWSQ
Assay: human group III sPLA2 inhibitors, dose response, biochemical, QFRET, IC50 (AID 743457)

Structure (SMILES) | IC50
CCCCn1c(NS(=O)(=O)c2ccccc2)c(C(=O)OCC)c2nc3ccccc3nc21 [MLS000589117] | 40.6 µM
NS(=O)(=O)c1ccc(Nc2nc3ccccc3nc2NS(=O)(=O)c2cccc([N+](=O)[O-])c2)cc1 | 42.5 µM
CCN(CC)c1nc2c3c(nc4c(c3c1C#N)CC(=O)N4c1ccc(Cl)cc1)NC(C)=N2 [MLS000389664] | 25 µM
CSCc1nc2sc(C(=O)Nc3nc(C)cs3)c(C)c2c(=O)[nH]1 [5-methyl-2-(methylsulfanylmethyl)-N-(4-methyl-1,3-thiazol-2-yl)-4-oxo-3H-thieno[2,3-d]pyrimidine-6-carboxamide] | 122 µM
C=CCSC(N)=NN=CC1C=C(Br)C=C([N+](=O)[O-])C1=O (stereo not drawn) [N''-[[(E)-(3-bromo-5-nitro-6-oxo-1-cyclohexa-2,4-dienylidene)methyl]amino]carbamimidothioic acid prop-2-enyl ester] | 40.6 µM
Cc1c(Cl)cccc1N=C(S)NCCc1ccc(S(N)(=O)=O)cc1 | 122 µM
COC(=O)CCC(=O)OC1(C)C(=O)C2=CN(CCCOC(C)C)C(c3ccc(OC)cc3)=CC2=C(Br)C1=O (stereo not drawn) [4-O-[5-bromo-3-(4-methoxyphenyl)-7-methyl-6,8-dioxo-2-(3-propan-2-yloxypropyl)isoquinolin-7-yl] 1-O-methyl butanedioate] | 122 µM
O=C1C([N+](=O)[O-])=CC(Cl)=CC1/C=N/NC(=O)C(O)(c1ccccc1)c1ccccc1 (stereo not drawn) [N''''-[(E)-(3-chloro-5-nitro-6-oxocyclohexa-2,4-dien-1-ylidene)methyl]-2-hydroxy-2,2-diphenylacetohydrazide] | 32.5 µM
Cc1ccc(O)c(-c2cc(C(=O)Nc3ccc(S(=O)(=O)Nc4nccc(C)n4)cc3)[nH]n2)c1 [5-(2-Hydroxy-5-methyl-phenyl)-2H-pyrazole-3-carboxylic acid [4-(4-methyl-pyrimidin-2-ylsulfamoyl)-phenyl]-amide] | 122 µM
COc1ccc(C=NNC(=O)CSc2n[nH]c(=O)[nH]c2=O)cc1 [2-[[3,5-bis(oxidanylidene)-2H-1,2,4-triazin-6-yl]sulfanyl]-N-[(4-methoxyphenyl)methylideneamino]ethanamide] | 48 µM
Cc1ccc(C(=O)n2c3ccccc3c3ccccc32)cc1 [carbazol-9-yl-(4-methylphenyl)methanone] | 30.3 µM
Cc1noc(/C=C/N(C)C)c1S(=O)(=O)N1CCCC(C(=O)NCc2ccco2)C1 (stereo not drawn) | 122 µM
COc1cc(/C=C(/C#N)c2nc3ccccc3[nH]2)ccc1OCc1ccc(C(=O)O)o1 [5-[[4-[(Z)-2-(1H-benzimidazol-2-yl)-2-cyanoethenyl]-2-methoxyphenoxy]methyl]-2-furancarboxylic acid] | 66.3 µM
Cc1n[nH]c(N=Nc2ccc(O)cc2)n1 [4-[(5-methyl-1H-1,2,4-triazol-3-yl)hydrazinylidene]cyclohexa-2,5-dien-1-one] | 20.5 µM
COCCN1C(=O)/C(=C/c2c(OC)cc(OC)cc2OC)C(=O)N(c2ccccc2)C1=O | 100 µM
Cc1ccc(-n2ncc3c(NNC(=O)c4ccco4)ncnc32)cc1C [MLS001235991] | 122 µM
Cc1ccc(C(=O)Nc2nc(C(C)(C)C)cs2)s1 [N-(4-tert-butyl-2-thiazolyl)-5-methyl-2-thiophenecarboxamide] | 122 µM
O=C1c2ccccc2SC1/C=N/c1cc([N+](=O)[O-])ccc1O (stereo not drawn) [(2Z)-2-[[(5-nitro-2-oxidanyl-phenyl)amino]methylidene]-1-benzothiophen-3-one] | 122 µM

From BindingDB's records for doi:10.7270/Q2CV4GCW (The Scripps Research Institute Molecular Screening Center, 2014)
